Laboratory results taken from patent US20260078120A1, “SUBSTITUTED PYRIDOPYRIMIDINONES” (MIRATI THERAPEUTICS, INC., priority 2022, published 2026).
Where two headings read alike, the source gives them in different places.

Legend:
[1] = system: T47D (PI3Kα H1047R mutant) cells; test: CellTiter-Glo 2.0 luminescent cell viability assay, 72 hours, T47D cells; assay type: cell-based; settings: T47D (PI3Kα H1047R mutant) cells, CellTiter-Glo, approximately 72 hours, read-out: T47D (H1047R mutant) Viability IC50
Method in brief: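 Viability was measured by CellTiter-Glo 2.0 luminescence after approximately 72 h of compound exposure at 37° C. Plating was 1000 cells per well the day before dosing, with ten 1:4 dilutions from a 10 µM top concentration. Values as percent of vehicle were fitted by variable-slope log(inhibitor) regression to give IC50.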

[2] = system: SKBR3 (PI3Kα wild type) cells; test: CellTiter-Glo 2.0 luminescent cell viability assay, 72 hours, SKBR3 cells; assay type: cell-based; settings: SKBR3 (PI3Kα wild type) cells, CellTiter-Glo, approximately 72 hours, read-out: SKBR3 (WT) Viability IC50
Method in brief: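 Viability measured via CTG luminescence following roughly 72 hours of compound exposure at 37° C. Dosing used a 10 um starting concentration diluted 1:4 over 10 points; percent-of-vehicle data fitted with a variable-slope four-parameter model for IC50.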

| IC50 ([1]; Homo sapiens, T47D, 72 h) | IC50 ([2]; Homo sapiens, SK-BR-3, 72 h) | IC50 [1] | IC50 [2] | Structure (SMILES) |
| --- | --- | --- | --- | --- |
| 0.257 µM | > 10 µM |  |  | Cc1cc([C@@H](C)Nc2ccccc2C(=O)O)c2nc(N3CCC4(CC3)C(F)(F)C4(F)F)c(C)c(=O)n2c1 [Example 11-213, (R)-2-((1-(3,7-dimethyl-4-oxo-2-(1,1,2,2-tetrafluoro-6-azaspiro[2.5]octan-6-yl)-4H-pyrido[1,2-a]pyrimidin-9-yl)ethyl)amino)benzoic acid] |
| 0.228 µM | > 10 µM |  |  | Cc1cc([C@@H](C)Nc2ccccc2C(=O)O)c2nc(N[C@@H](C)C3CC3)c(C#N)c(=O)n2c1 [Example 11-164, 2-(((R)-1-(3-cyano-2-(((S)-1-cyclopropylethyl)amino)-7-methyl-4-oxo-4H-pyrido[1,2-a]pyrimidin-9-yl)ethyl)amino)benzoic acid] |
| 0.392 µM | > 10 µM |  |  | Cc1cc([C@@H](C)Nc2ccccc2C(=O)O)c2nc(N3Cc4nccnc4C3)c(C)c(=O)n2c1 [Example 11-138, (R)-2-((1-(2-(5,7-dihydro-6H-pyrrolo[3,4-b]pyrazin-6-yl)-3,7-dimethyl-4-oxo-4H-pyrido[1,2-a]pyrimidin-9-yl)ethyl)amino)benzoic acid] |
| 0.34 µM | > 10 µM |  |  | Cc1cc([C@@H](C)Nc2ccccc2C(=O)O)c2nc(N3CCN(c4ccc(C(F)(F)F)cc4C#N)C[C@H]3C)c(C#N)c(=O)n2c1 [Example 11-76, 2-(((R)-1-(3-cyano-2-((R)-4-(2-cyano-4-(trifluoromethyl)phenyl)-2-methylpiperazin-1-yl)-7-methyl-4-oxo-4H-pyrido[1,2-a]pyrimidin-9-yl)ethyl)amino)benzoic acid] |
| 0.999 µM | > 10 µM |  |  | Cc1cc([C@@H](C)Nc2ccccc2C(=O)O)c2nc(-c3cn(C)cn3)c(C)c(=O)n2c1 [Example 11-234, (R)-2-((1-(3,7-dimethyl-2-(1-methyl-1H-imidazol-4-yl)-4-oxo-4H-pyrido[1,2-a]pyrimidin-9-yl)ethyl)amino)benzoic acid] |
| 4.67 µM | > 10 µM |  |  | Cc1cc([C@@H](C)Nc2ccccc2C(=O)O)c2nc(N3CCn4cncc4C3)c(C)c(=O)n2c1 [Example 11-430, (R)-2-((1-(2-(5,6-dihydroimidazo[1,5-a]pyrazin-7(8H)-yl)-3,7-dimethyl-4-oxo-4H-pyrido[1,2-a]pyrimidin-9-yl)ethyl)amino)benzoic acid] |
| 0.88 µM | > 10 µM |  |  | Cc1cc(C(C)Nc2ccc(C(F)(F)F)nc2C(=O)O)c2nc(N3Cc4ccccc4C3)c(C)c(=O)n2c1 (centres unmarked) [Example 11-355, 3-((1-(2-(isoindolin-2-yl)-3,7-dimethyl-4-oxo-4H-pyrido[1,2-a]pyrimidin-9-yl)ethyl)amino)-6-(trifluoromethyl) picolinic acid] |
| 0.404 µM | > 10 µM |  |  | Cc1cc([C@@H](C)Nc2ccccc2C(=O)O)c2nc(N3CCN(c4cccc(C#N)c4)C[C@@H]3C)c(C#N)c(=O)n2c1 [Example 11-85, 2-(((R)-1-(3-cyano-2-((S)-4-(3-cyanophenyl)-2-methylpiperazin-1-yl)-7-methyl-4-oxo-4H-pyrido[1,2-a]pyrimidin-9-yl)ethyl)amino)benzoic acid] |
| 0.114 µM | > 10 µM |  |  | Cc1cc([C@@H](C)Nc2ccccc2C(=O)O)c2nc(N3CCC(c4cc[nH]n4)CC3)c(C)c(=O)n2c1 [Example 11-252, (R)-2-((1-(2-(4-(1H-pyrazol-3-yl)piperidin-1-yl)-3,7-dimethyl-4-oxo-4H-pyrido[1,2-a]pyrimidin-9-yl)ethyl)amino)benzoic acid] |
| 1.04 µM | > 10 µM |  |  | Cc1cc([C@@H](C)Nc2ccc(Cl)nc2C(=O)O)c2nc(N3Cc4ccncc4C3)c(C#N)c(=O)n2c1 [Example 11-147, (R)-6-chloro-3-((1-(3-cyano-2-(1,3-dihydro-2H-pyrrolo[3,4-c]pyridin-2-yl)-7-methyl-4-oxo-4H-pyrido[1,2-a]pyrimidin-9-yl)ethyl)amino)picolinic acid] |
| > 10 µM | > 10 µM |  |  | Cc1cc(C(C)NC2CC(C(=O)O)C2)c2nc(N3CCCCC3)cc(=O)n2c1 (centres unmarked) [Example 11-385, 3-((1-(7-methyl-4-oxo-2-(piperidin-1-yl)-4H-pyrido[1,2-a]pyrimidin-9-yl)ethyl)amino)cyclobutane-1-carboxylic acid] |
| > 10 µM | > 10 µM |  |  | CC(Nc1ccccc1C(=O)O)c1cc(C#N)cn2c(=O)cc(N3CCC(F)(F)CC3)nc12 (centres unmarked) [Example 11-419, 2-((1-(7-cyano-2-(4,4-difluoropiperidin-1-yl)-4-oxo-4H-pyrido[1,2-a]pyrimidin-9-yl)ethyl)amino)benzoic acid] |
| 0.0248 µM | > 10 µM |  |  | Cc1cc([C@@H](C)Nc2ccccc2C(=O)O)c2nc(N3CCC(c4ccncc4)C3)c(C)c(=O)n2c1 (stereo partly drawn) [Example 10-9, 2-(((1R)-1-(3,7-dimethyl-4-oxo-2-(3-(pyridin-4-yl)pyrrolidin-1-yl)-4H-pyrido[1,2-a]pyrimidin-9-yl)ethyl)amino)benzoic acid] |
|  |  | 0.173 µM | > 10 µM | Cc1cc([C@@H](C)Nc2ccccc2C(=O)O)c2nc(N3CCC4(CCOC4)CC3)c(C)c(=O)n2c1 [Example 11-62, (R)-2-((1-(3,7-dimethyl-4-oxo-2-(2-oxa-8-azaspiro[4.5]decan-8-yl)-4H-pyrido[1,2-a]pyrimidin-9-yl)ethyl)amino)benzoic acid] |
| 1.05 µM | > 10 µM |  |  | Cc1cc([C@@H](C)Nc2ccccc2C(=O)O)c2nc(N[C@@H](C3CC3)C(F)(F)F)c(C#N)c(=O)n2c1 [Example 11-161, 2-(((R)-1-(3-cyano-2-(((S)-1-cyclopropyl-2,2,2-trifluoroethyl)amino)-7-methyl-4-oxo-4H-pyrido[1,2-a]pyrimidin-9-yl)ethyl)amino)benzoic acid] |
| 7.64 µM | > 10 µM |  |  | Cc1cc(C(C)Nc2ccccc2C(=O)O)c2nc(-c3cn[nH]c3)cc(=O)n2c1 (centres unmarked) [Example 11-373, 2-((1-(7-methyl-4-oxo-2-(1H-pyrazol-4-yl)-4H-pyrido[1,2-a]pyrimidin-9-yl)ethyl)amino)benzoic acid] |
| 0.343 µM | > 10 µM |  |  | Cc1cc([C@@H](C)Nc2ccccc2C(=O)O)c2nc(N3CCN(C4CC4)CC3)c(C#N)c(=O)n2c1 [Example 11-150, (R)-2-((1-(3-cyano-2-(4-cyclopropylpiperazin-1-yl)-7-methyl-4-oxo-4H-pyrido[1,2-a]pyrimidin-9-yl)ethyl)amino)benzoic acid] |
| 0.427 µM | > 10 µM |  |  | Cc1cc([C@@H](C)Nc2ccc(Cl)cc2C(=O)O)c2nc(N3CCCCC3)c(C)c(=O)n2c1 [Example 11-281, (R)-5-chloro-2-((1-(3,7-dimethyl-4-oxo-2-(piperidin-1-yl)-4H-pyrido[1,2-a]pyrimidin-9-yl)ethyl)amino)benzoic acid] |
| 0.356 µM | > 10 µM |  |  | Cc1cc([C@@H](C)Nc2ccccc2C(=O)O)c2nc(N(C)CC3CC3)c(C)c(=O)n2c1 [Example 11-203, (R)-2-((1-(2-((cyclopropylmethyl)(methyl)amino)-3,7-dimethyl-4-oxo-4H-pyrido[1,2-a]pyrimidin-9-yl)ethyl)amino)benzoic acid] |
| 0.272 µM | > 10 µM |  |  | Cc1cc([C@@H](C)Nc2ccccc2C(=O)O)c2nc(N3CCC(C#N)CC3)c(C)c(=O)n2c1 [Example 11-73, (R)-2-((1-(2-(4-cyanopiperidin-1-yl)-3,7-dimethyl-4-oxo-4H-pyrido[1,2-a]pyrimidin-9-yl)ethyl)amino)benzoic acid] |
| 1.33 µM | > 10 µM |  |  | Cc1cc([C@@H](C)Nc2ccccc2C(=O)O)c2nc(N3CC(C#N)C3)c(C#N)c(=O)n2c1 [Example 11-109, (R)-2-((1-(3-cyano-2-(3-cyanoazetidin-1-yl)-7-methyl-4-oxo-4H-pyrido[1,2-a]pyrimidin-9-yl)ethyl)amino)benzoic acid] |
| 3 µM | > 10 µM |  |  | Cc1cc([C@@H](C)Nc2ccccc2C(=O)O)c2nc(N3C[C@@H]4C[C@H]3CN4c3ccc(C#N)cc3)c(C#N)c(=O)n2c1 [Example 11-175, 2-(((R)-1-(3-cyano-2-((1S,4S)-5-(4-cyanophenyl)-2,5-diazabicyclo[2.2.1]heptan-2-yl)-7-methyl-4-oxo-4H-pyrido[1,2-a]pyrimidin-9-yl)ethyl)amino)benzoic acid] |
| > 10 µM | > 10 µM |  |  | Cc1cc(C(=O)NC2(CC(=O)O)CCC2)c2nc(N3CCCCC3)c(C#N)c(=O)n2c1 [Example 11-316, 2-(1-(3-cyano-7-methyl-4-oxo-2-(piperidin-1-yl)-4H-pyrido[1,2-a]pyrimidine-9-carboxamido)cyclobutyl)acetic acid] |

| Structure (SMILES) | IC50 ([1]; Homo sapiens, T47D, 72 h) | IC50 ([2]; Homo sapiens, SK-BR-3, 72 h) | IC50 [1] | IC50 [2] |
| --- | --- | --- | --- | --- |
| Cc1cc([C@@H](C)Nc2ccccc2C(=O)O)c2nc(N3C4CCC3c3ccccc34)c(C)c(=O)n2c1 [Example 11-215, 2-(((1R)-1-(3,7-dimethyl-4-oxo-2-(1,2,3,4-tetrahydro-1,4-epiminonaphthalen-9-yl)-4H-pyrido[1,2-a]pyrimidin-9-yl)ethyl)amino)benzoic acid] | 0.303 µM | > 10 µM |  |  |
| Cc1cc([C@@H](C)Nc2ccccc2C(=O)O)c2nc(N3C4CC3CN(c3ccc(C#N)cc3)C4)c(C)c(=O)n2c1 [Example 11-181, 2-(((1R)-1-(2-(3-(4-cyanophenyl)-3,6-diazabicyclo[3.1.1]heptan-6-yl)-3,7-dimethyl-4-oxo-4H-pyrido[1,2-a]pyrimidin-9-yl)ethyl)amino)benzoic acid] | > 10 µM | > 10 µM |  |  |
